These results are taken from patent US12522601B2, “1,3,4-oxadiazole derivative compounds as histone deacetylase 6 inhibitor, and the pharmaceutical composition comprising the same” (CHONG KUN DANG PHARMACEUTICAL CORP., priority 2020, dated 2026).

For assay [1], the target named is T1, human recombinant HDAC1 (Homo sapiens, UniProt Q13547).
T1 construct: purchased Enzo Life Sciences, Inc. BML-SE456
Description: In vitro HDAC enzyme activity inhibition assay, HDAC1 (HDAC Fluorimetric Drug Discovery Kit). The assay is classed as biochemical. To be noted: human recombinant HDAC1, Fluor de Lys-SIRT1 substrate 10 μM, 30° C. for 60 minutes. The method, then:
(§1) In order to confirm the selectivity of the compounds represented by Chemical Formula I of the present invention to HDAC6 through HDAC1 and HDAC6 enzyme activity inhibition experiments, a comparison experiment was performed using the material that has already been developed as a control group.
(§2) HDAC enzyme activity was measured using the HDAC Fluorimetric Drug Discovery Kit (Enzo Life Sciences, Inc., BML-AK511, 516). For the HDAC1 enzyme activity test, human recombinant HDAC1 (BML-SE456) was used as an enzyme source and Fluor de Lys®-SIRT1 (BNL-KI177) was used as a substrate. After dispensing 5-fold diluted compounds into a 96-well plate, 0.3 μg of enzyme and 10 μM substrate were added to each well of the plate and allowed to react at 30° C. for 60 minutes. Next, Fluor de Lys® Developer II (BML-KI176) was added and reacted for 30 minutes to complete the reaction, and then the fluorescence values (Ex 360, Em 460) were measured using a multi-plate reader (Flexstation 3, Molecular Device). The HDAC6 enzymes were tested using human recombinant HDAC6 (382180) from Calbiochem Inc., according to the same protocol as the HDAC1 enzyme activity test method. With respect to the final result values, respective IC50 values were calculated using GraphPad Prism 4.0 program, and results thereof were summarized in Table 5 below.

Assay [2] deals with T2, human recombinant HDAC6 (Homo sapiens, UniProt Q9UBN7).
T2 construct: purchased Calbiochem Inc. 382180
T2 sequence (Q9UBN7 1-1215): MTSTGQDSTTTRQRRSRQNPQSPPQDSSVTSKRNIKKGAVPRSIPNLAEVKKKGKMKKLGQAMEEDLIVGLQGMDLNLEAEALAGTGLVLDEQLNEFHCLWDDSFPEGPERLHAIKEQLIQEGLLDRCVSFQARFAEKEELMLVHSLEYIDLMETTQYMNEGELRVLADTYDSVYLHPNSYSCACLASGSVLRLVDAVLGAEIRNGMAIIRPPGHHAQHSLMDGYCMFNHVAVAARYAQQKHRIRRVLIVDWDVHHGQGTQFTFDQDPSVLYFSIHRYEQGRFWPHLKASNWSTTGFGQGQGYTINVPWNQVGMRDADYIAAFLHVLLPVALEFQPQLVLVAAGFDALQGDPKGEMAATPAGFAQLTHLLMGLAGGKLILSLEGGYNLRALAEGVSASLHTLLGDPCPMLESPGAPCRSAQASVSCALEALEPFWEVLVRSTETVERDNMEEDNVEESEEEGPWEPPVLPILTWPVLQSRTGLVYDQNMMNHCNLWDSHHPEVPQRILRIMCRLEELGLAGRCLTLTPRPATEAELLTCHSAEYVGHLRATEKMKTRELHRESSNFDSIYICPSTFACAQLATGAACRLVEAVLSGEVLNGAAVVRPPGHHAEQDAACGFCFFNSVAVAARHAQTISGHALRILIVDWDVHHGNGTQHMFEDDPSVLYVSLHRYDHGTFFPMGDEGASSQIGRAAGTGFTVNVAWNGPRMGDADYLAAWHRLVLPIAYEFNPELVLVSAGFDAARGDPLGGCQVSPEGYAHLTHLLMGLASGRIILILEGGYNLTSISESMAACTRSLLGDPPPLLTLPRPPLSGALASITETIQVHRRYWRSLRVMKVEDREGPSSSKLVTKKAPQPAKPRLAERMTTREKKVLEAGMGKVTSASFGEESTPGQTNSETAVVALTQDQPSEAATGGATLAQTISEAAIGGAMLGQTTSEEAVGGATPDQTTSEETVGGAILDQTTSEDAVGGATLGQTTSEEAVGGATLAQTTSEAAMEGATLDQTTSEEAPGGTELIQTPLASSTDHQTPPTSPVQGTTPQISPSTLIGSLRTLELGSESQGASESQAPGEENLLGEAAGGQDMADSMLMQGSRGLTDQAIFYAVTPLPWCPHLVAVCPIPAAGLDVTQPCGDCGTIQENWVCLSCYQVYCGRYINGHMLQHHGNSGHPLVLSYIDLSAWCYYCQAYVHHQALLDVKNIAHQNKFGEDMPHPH
Description: In vitro HDAC enzyme activity inhibition assay, HDAC6 (HDAC Fluorimetric Drug Discovery Kit). The assay is classed as biochemical. To be noted: for HDAC6 Selectivity (fold): HDAC6 versus HDAC1; for IC50: human recombinant HDAC6, same protocol as the HDAC1 test. The method, then:
as §1, §2

T1 sequence (Q13547 whole entry): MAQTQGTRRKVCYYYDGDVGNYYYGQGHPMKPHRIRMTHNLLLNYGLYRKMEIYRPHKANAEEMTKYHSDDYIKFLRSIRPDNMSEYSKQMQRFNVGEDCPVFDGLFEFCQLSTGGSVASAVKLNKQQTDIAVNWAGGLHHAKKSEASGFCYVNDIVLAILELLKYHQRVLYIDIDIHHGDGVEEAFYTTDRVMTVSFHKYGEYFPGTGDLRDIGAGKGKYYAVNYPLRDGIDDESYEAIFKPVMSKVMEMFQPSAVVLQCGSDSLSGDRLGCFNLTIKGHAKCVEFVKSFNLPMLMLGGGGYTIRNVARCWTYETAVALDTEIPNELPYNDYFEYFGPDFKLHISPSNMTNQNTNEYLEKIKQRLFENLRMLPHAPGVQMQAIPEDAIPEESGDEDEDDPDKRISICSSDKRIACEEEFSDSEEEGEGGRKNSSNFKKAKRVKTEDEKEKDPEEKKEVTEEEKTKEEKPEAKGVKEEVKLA

By IC50 is commonly meant the midpoint of a concentration-inhibition curve. As to `O=C(CO)N1CCN(C(=O)N(Cc2cn3ccc(-c4nnc(C(F)F)o4)cc3n2)c2cccc(F)c2)CC1` [Compound 4094, N-((7-(5-(difluoromethyl)-1,3,4-oxadiazol-2-yl)imidazo[1,2-a]pyridin-2-yl)methyl)-N-(3-fluorophenyl)-4-(2-hydroxyacetyl)piperazine-1-carboxamide], in assay [1], the IC50 is > 50000 nM. In assay [2], the “HDAC6 Selectivity (fold)” value was 215 fold and the IC50 is 232 nM.
Consider `O=C(C1CCN(c2ccccn2)CC1)N(Cc1cn2ccc(-c3nnc(C(F)F)o3)cc2n1)c1cccc(F)c1` [Compound 4156, N-((7-(5-(difluoromethyl)-1,3,4-oxadiazol-2-yl)imidazo[1,2-a]pyridin-2-yl)methyl)-N-(3-fluorophenyl)-1-(pyridin-2-yl)piperidine-4-carboxamide], for which the half-maximal inhibitory concentration (IC50) in assay [1] was > 50000 nM. In assay [2], the “HDAC6 Selectivity (fold)” value was 359 fold and the IC50 was 139 nM.
With `CC(C)N1CC(C(=O)N(Cc2cn3ccc(-c4nnc(C(F)F)o4)cc3n2)c2cccc(F)c2)C1` [Compound 4190, N-((7-(5-(difluoromethyl)-1,3,4-oxadiazol-2-yl)imidazo[1,2-a]pyridin-2-yl)methyl)-N-(3-fluorophenyl)-1-isopropylazetidine-3-carboxamide], in assay [1], the IC50 was > 50000 nM. In addition, in assay [2], the “HDAC6 Selectivity (fold)” value was found to be 395 fold and the 50% inhibitory concentration (IC50) stood at 126 nM.
In the same order, the values of `O=C(C1CCC1)N1CC(C(=O)N(Cc2cn3ccc(-c4nnc(C(F)F)o4)cc3n2)c2ccccc2)C1` [Compound 4170, 1-(cyclobutanecarbonyl)-N-((7-(5-(difluoromethyl)-1,3,4-oxadiazol-2-yl)imidazo[1,2-a]pyridine-2-yl)methyl)-N-phenylazetidine-3-carboxamide] are > 50000 nM, 144 fold and 347 nM.
In the same order, the values of `COC(=O)N1CC(C(=O)N(Cc2cn3ccc(-c4nnc(C(F)F)o4)cc3n2)c2ccccc2)C1` [Compound 4174, methyl 3-(((7-(5-(difluoromethyl)-1,3,4-oxadiazol-2-yl)imidazo[1,2-a]pyridin-2-yl)methyl)(phenyl)carbamoyl) azetidine-1-carboxylate] are > 50000 nM, 168 fold and 298 nM.
The corresponding values for `FC(F)c1nnc(-c2ccn3cc(CNc4ccccc4)nc3c2)o1` [Compound 3668, N-((7-(5-(difluoromethyl)-1,3,4-oxadiazol-2-yl)imidazo[1,2-a]pyridin-2-yl)methyl)aniline] are > 50000 nM, 299 fold and 167 nM.
On to `CC(=O)N1CCN(C(=O)N(Cc2cn3ccc(-c4nnc(C(F)F)o4)cc3n2)c2ccccc2)CC1` [Compound 4040, 4-acetyl-N-((7-(5-(difluoromethyl)-1,3,4-oxadiazol-2-yl)imidazo[1,2-a]pyridin-2-yl)methyl)-N-phenylpiperazine-1-carboxamide], for which the IC50 in assay [1] is > 50000 nM. In addition, in assay [2], the “HDAC6 Selectivity (fold)” value came out at 421 fold and the IC50 came to 119 nM.
The corresponding values for `O=C(N1CCN(c2ncccn2)CC1)N(Cc1cn2ccc(-c3nnc(C(F)F)o3)cc2n1)c1cccc(F)c1` [Compound 4101, N-((7-(5-(difluoromethyl)-1,3,4-oxadiazol-2-yl)imidazo[1,2-a]pyridin-2-yl)methyl)-N-(3-fluorophenyl)-4-(pyrimidin-2-yl)piperazine-1-carboxamide] are > 50000 nM, 464 fold and 108 nM.
For the molecule `O=C(C1CCN(C2CCOCC2)CC1)N(Cc1cn2ccc(-c3nnc(C(F)F)o3)cc2n1)c1ccccc1` [Compound 4120, N-((7-(5-(difluoromethyl)-1,3,4-oxadiazol-2-yl)imidazo[1,2-a]pyridin-2-yl)methyl)-N-phenyl-1-(tetrahydro-2H-pyran-4-yl)piperidine-4-carboxamide], in assay [1], the IC50 is > 50000 nM. For the same molecule, in assay [2], the “HDAC6 Selectivity (fold)” value was 98 fold and the half-inhibitory concentration (IC50) was 509 nM.
